Laboratory results: publication PMC4104973 (IUCrJ, 2013)

How the values were obtained:
[1] = biological target: T1, WcbI (Burkholderia pseudomallei, UniProt Q63R74); conditions: absolute Tm at 1 mM ligand (no ligand 37.4 ± 0.4 °C); 10 mM HEPES pH 7.0, 150 mM NaCl
[2] = biological target: T1, WcbI; experiment: biochemical
[3] = biological target: T1, WcbI; conditions: covalent (disulfide to Cys14); co-crystallized with 200 µM acetyl-CoA; native structure 4BQO (1.56 Å) holds non-covalent CoA carried from E. coli

T1 sequence (Q63R74 1-312 limits assumed): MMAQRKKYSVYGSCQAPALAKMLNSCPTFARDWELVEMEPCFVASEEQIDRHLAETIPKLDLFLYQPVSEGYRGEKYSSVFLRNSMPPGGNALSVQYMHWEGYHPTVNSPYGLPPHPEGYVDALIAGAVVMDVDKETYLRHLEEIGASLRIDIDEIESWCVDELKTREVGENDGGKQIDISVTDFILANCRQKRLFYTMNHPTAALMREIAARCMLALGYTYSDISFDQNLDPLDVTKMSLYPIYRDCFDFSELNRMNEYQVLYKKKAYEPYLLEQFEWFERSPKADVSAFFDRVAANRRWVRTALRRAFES

| SMILES | T m ± SD ^† (°C) [1] | Kd [2] | X-ray crystal structure, 1.38 Å [3] |
| --- | --- | --- | --- |
| CC(=O)SCCNC(=O)CCNC(=O)[C@H](O)C(C)(C)COP(=O)(O)OP(=O)(O)OC[C@H]1O[C@@H](n2cnc3c(N)ncnc32)[C@H](O)[C@@H]1OP(=O)(O)O [acetyl-CoA] | 45.6 ± 0.5 °C |  |  |
| CC(C)(COP(=O)(O)OP(=O)(O)OC[C@H]1O[C@@H](n2cnc3c(N)ncnc32)[C@H](O)[C@@H]1OP(=O)(O)O)[C@@H](O)C(=O)NCCC(=O)NCCS [coenzyme A] | 46.2 ± 0.2 °C | 58 ± 2 µM | 4bqn for WcbI covalently bound to coenzyme A and 4bqo for the native structure |
